Experimental data taken from US6007814A, “Therapeutic uses of the hypervariable region of monoclonal antibody M195 and constructs thereof” (priority 1992, dated 1999).

Key:
Type in all cases: cell-based, human
HL-60 cell line = assay: HL-60 clonogenic assay (colony-forming inhibition) after ex vivo purging treatment; details: 4HC 100 μM, VP-16 5 μg/ml, 1 hr incubation at 37° C., colonies scored after 7 days, mean + SD
Method: Human Cell Line. HL-60 is a human acute promyelocytic leukemia cell line growing with a doubling time of 24 hours and a plating efficiency of 7-12% (148). The cell line was maintained in exponential growth in RPMI-1640 supplemented with 10% fetal calf serum (FCS-Hyclone, Logan, U.S.A.) 1% L-Glutamine at 37° C. in a humidified atmosphere of 5% CO2 air. Cell viability was always higher than 95% and cells were free of mycoplasma contamination.
(§1) Incubation Procedure and Culture Techniques. Tumor cells and normal BM cells were adjusted to a concentration of 2×10^6 /ml and 20×10^6 /ml, respectively. […] After completion of 1 hr incubation at 37° C., the cells were put on ice for five minutes and washed twice with RPMI supplemented with FCS. To simulate "ex vivo" BM purging conditions, the HL-60 cells were also incubated together with irradiated (3,000 cGy) BM cells (1:10 ratio). […] Cells were incubated at 37° C. in humidified atmosphere of 5% of CO2 in air and scored for colonies (>50 cells) after 7 days of incubation using an inverted microscope.
(§2) DATA ANALYSIS. All experiments were performed three or more times and the mean+standard deviation (SD) values of each experiment were calculated. Colony counts after drug treatment were expressed as a percent of the untreated control cells.

CFU-GM = assay: Clonogenic assay of normal bone marrow progenitors, CFU-GM; details: normal BM; 4HC 100 μM, VP-16 5 μg/ml; 1 hr at 37° C.; scored at day 14; mean ± SD vs control cultures
Method: (§3) Bone Marrow Cells. Bone marrow was aspirated from the posterior iliac crest of healthy volunteers after obtaining written informed consent and BM mononuclear cells were collected after Ficoll-Hypaque gradient (1.077 g/cm3).
as §1
(§4) After treatment, normal bone marrow cells were assayed for colonies derived from CFU-GM, BFU-E and CFU-GEM as already described (150). […] Quadruplicate cultures were incubated as described above and the colonies were scored after 14 days of incubation. […] Colonies (>20 cells) were scored after 10 days of incubation.
as §2

BFU-E = assay: Clonogenic assay of normal bone marrow progenitors, BFU-E; details: normal BM; 4HC 100 μM, VP-16 5 μg/ml; 1 hr at 37° C.; scored at day 14; mean ± SD vs control cultures
Method: as §3, §1, §4, §2

## O=P1(N(CCCl)CCCl)NC(OO)CCO1 (stereo not drawn) [4HC]
HL-60 cell line
  colony-forming inhibition: 99.5+0.8%
CFU-GM
  COLONY FORMING INHIBITION CFU-GM: 84 ± 10%
BFU-E
  COLONY FORMING INHIBITION BFU-E: 80.3 ± 12.5%
